From patent US12319655B2, “RAF kinase inhibitors and methods of use thereof” (Deciphera Pharmaceuticals, LLC, priority 2021, dated 2025)
Like-named read-outs stand apart in the source and are kept apart here. Blank lines part the entries; values can stand above or below the compound they belong to.

Columns and labels:
[1] = system: WM3928 cells; assay: WM3928 Cell Proliferation Assay (1); assay type: cell-based
In short: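 IC50 was derived from resazurin fluorescence (ex 540, em 600 nm) after a 6–7 h dye incubation. Before that, cells had 67–72 h of compound exposure at 37 °C, 5% CO2.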

[2] = biological target: A-Raf kinase (SEQ. ID No: 1) (Homo sapiens (Human), UniProt P10398, Y301D/Y302D); assay: Biochemical Assay for A-Raf (1); conditions: Table J
Sequence of A-Raf kinase (SEQ. ID No: 1) (P10398 other isoform, or with tags, fused parts or gaps Y301D (already in the parent)/Y302D (already in the parent)): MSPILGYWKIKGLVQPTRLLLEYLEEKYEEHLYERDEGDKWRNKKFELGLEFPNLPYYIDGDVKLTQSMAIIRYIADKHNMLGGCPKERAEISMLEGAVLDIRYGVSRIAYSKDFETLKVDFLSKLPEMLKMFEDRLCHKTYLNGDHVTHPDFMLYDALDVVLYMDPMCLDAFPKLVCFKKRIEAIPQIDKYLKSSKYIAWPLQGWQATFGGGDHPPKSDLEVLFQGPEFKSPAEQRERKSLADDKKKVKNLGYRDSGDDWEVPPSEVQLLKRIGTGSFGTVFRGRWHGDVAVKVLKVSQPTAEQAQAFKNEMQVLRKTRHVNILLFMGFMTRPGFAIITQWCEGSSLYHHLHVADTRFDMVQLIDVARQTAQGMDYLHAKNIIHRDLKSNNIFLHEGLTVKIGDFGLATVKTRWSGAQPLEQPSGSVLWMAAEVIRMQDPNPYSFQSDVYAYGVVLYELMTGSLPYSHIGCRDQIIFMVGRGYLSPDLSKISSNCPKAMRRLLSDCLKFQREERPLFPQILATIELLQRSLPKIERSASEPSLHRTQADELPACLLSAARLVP
In short: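 A-Raf Y301D/Y302D at 5.55 nM phosphorylates 30.1 nM MEK with 1 mM ATP in pH 7.5 Tris buffer, 1% DMSO. Activity was read continuously as NADH oxidation at 340 nm in a pyruvate kinase/lactate dehydrogenase coupled system for 6 h at 30 °C. Rates from 4–5 h were converted to percent inhibition, and IC50 came from a four-parameter fit.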

[3] = biological target: C-Raf kinase (SEQ. ID NO: 3) (Homo sapiens (Human), UniProt P04049, Y340D/Y341D); assay: Biochemical Assay for C-Raf (1); conditions: Table J
Sequence of C-Raf kinase (SEQ. ID NO: 3) (P04049 307-648 Y340D/Y341D): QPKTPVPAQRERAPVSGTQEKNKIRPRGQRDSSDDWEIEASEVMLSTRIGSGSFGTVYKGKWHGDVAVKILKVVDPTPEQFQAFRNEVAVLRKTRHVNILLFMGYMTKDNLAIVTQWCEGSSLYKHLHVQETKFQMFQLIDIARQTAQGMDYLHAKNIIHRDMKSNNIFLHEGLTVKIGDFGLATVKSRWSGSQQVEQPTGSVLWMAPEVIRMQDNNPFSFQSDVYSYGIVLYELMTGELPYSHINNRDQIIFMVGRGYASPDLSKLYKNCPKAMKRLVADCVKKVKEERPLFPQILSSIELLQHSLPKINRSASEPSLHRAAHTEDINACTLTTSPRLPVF
In short: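 Coupled pyruvate kinase/LDH assay tracking NADH oxidation at 340 nm, with 0.43 nM C-Raf, 30.1 nM MEK and 1 mM ATP in pH 7.5 Tris buffer (15 mM MgCl2, 1% DMSO final). Read continuously for 6 h at 30 °C, rate taken from the 4–5 h window. IC50 from four-parameter fit of percent inhibition.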

[4] = biological target: B-Raf (V600E) (SEQ. ID NO: 4) kinase (Homo sapiens (Human), UniProt P15056, V600E); assay: Biochemical Assay for B-Raf (V600E) (1); conditions: Table J, BRAF V600E
Sequence of B-Raf (V600E) (SEQ. ID NO: 4) kinase (P15056 416-766 V600E): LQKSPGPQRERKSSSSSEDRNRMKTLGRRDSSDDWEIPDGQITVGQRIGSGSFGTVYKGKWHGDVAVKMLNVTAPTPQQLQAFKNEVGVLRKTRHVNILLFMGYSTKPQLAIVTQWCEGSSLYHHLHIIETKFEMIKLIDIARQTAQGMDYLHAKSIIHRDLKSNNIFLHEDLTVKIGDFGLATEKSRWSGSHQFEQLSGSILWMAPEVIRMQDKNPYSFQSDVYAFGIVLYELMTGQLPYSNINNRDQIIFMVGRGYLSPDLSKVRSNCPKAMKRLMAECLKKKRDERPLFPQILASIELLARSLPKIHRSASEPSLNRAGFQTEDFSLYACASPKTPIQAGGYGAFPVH
In short: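 Coupled pyruvate kinase/lactate dehydrogenase assay: 0.03 nM B-Raf V600E, 30.1 nM MEK, 1 mM ATP, pH 7.5 Tris/MgCl2 buffer, 1% DMSO. NADH oxidation followed at 340 nm for 6 h at 30 °C; rate from 3–4 h converted to percent inhibition, IC50 by four-parameter fit.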

[5] = assay version (1), read-out: ARAF (1) IC50
[6] = assay version (1), read-out: CRAF (1) IC50
[7] = assay version (1), read-out: BRAF VE (1) IC50
[8] = biochemical assay (1), read-out: ARAF (1)
[9] = biochemical assay (1), read-out: CRAF (1)
[10] = biochemical assay (1), read-out: BRAF VE (1)

SMILES: Cc1ccc(NC(=O)c2ccnc(C(F)(F)F)c2)cc1-c1cccc(-c2cc(NC(=O)C3CC3)ncn2)c1 [Example 80]
IC50 [1]: 100 to 500 nM
IC50 [2, 5]: 1000 to 10000 nM
IC50 [3, 6]: ≤ 100 nM
IC50 [4, 7]: ≤ 100 nM

SMILES: Cc1ccc(NC(=O)c2ccnc(C(C)(C)C#N)c2)cc1-c1ccnc(-c2ccnc(N)c2)n1 [Example 82]
IC50 [1]: 1000 to 10000 nM
IC50 [2, 5]: 1000 to 10000 nM
IC50 [3, 6]: ≤ 100 nM
IC50 [4, 7]: ≤ 100 nM

SMILES: CNC(=O)c1cc(-c2cc(-c3cc(NC(=O)c4ccnc(C(F)(F)F)c4)ccc3C)ncn2)ccn1 [Example 85]
IC50 [1]: 1000 to 10000 nM
IC50 [2, 5]: 1000 to 10000 nM
IC50 [3, 6]: ≤ 100 nM
IC50 [4, 7]: ≤ 100 nM

SMILES: CNC(=O)c1cc(-c2cncc(-c3cc(NC(=O)c4ccnc(C(C)(C)C#N)c4)ccc3C)n2)ccn1 [Example 86]
IC50 [1]: ≤ 100 nM
IC50 [2, 5]: 1000 to 10000 nM
IC50 [3, 6]: ≤ 100 nM
IC50 [4, 7]: ≤ 100 nM

SMILES: COCC(=O)Nc1cc(-c2nccc(-c3cc(NC(=O)c4ccnc(C(C)(C)C#N)c4)ccc3C)n2)ccn1 [Example 88]
IC50 [1]: ≤ 100 nM
IC50 [2, 5]: 1000 to 10000 nM
IC50 [3, 6]: ≤ 100 nM
IC50 [4, 7]: ≤ 100 nM

SMILES: CC(=O)Nc1cc(-c2cc(-c3cc(NC(=O)c4ccnc(C(C)(C)C#N)c4)ccc3C)nc(C)n2)ccn1 [Example 89]
IC50 [1]: ≤ 100 nM
IC50 [2, 5]: 1000 to 10000 nM
IC50 [3, 6]: ≤ 100 nM
IC50 [4, 7]: ≤ 100 nM

SMILES: COC(=O)Nc1cc(-c2cnnc(-c3cc(NC(=O)c4ccnc(C(C)(C)F)c4)ccc3C)c2)ccn1 [Example 375]
IC50 [1]: ≤ 100 nM
IC50 [2, 8]: 1000 to 10000 nM
IC50 [3, 9]: ≤ 100 nM
IC50 [4, 10]: ≤ 100 nM

SMILES: CNC(=O)c1cc(-c2ccnc(-c3cc(NC(=O)c4ccnc(C(C)(C)C#N)c4)ccc3C)c2)ccn1 [Example 376]
IC50 [1]: 100 to 500 nM
IC50 [2, 8]: 1000 to 10000 nM
IC50 [3, 9]: ≤ 100 nM
IC50 [4, 10]: ≤ 100 nM

SMILES: Cc1ccc(NC(=O)c2cc(C3CC3)n(C)n2)cc1-c1cc(-c2ccnc(NC(=O)C3CC3)c2)cnn1 [Example 377]
IC50 [1]: ≤ 100 nM
IC50 [2, 8]: 1000 to 10000 nM
IC50 [3, 9]: ≤ 100 nM
IC50 [4, 10]: ≤ 100 nM

SMILES: CNC(=O)c1cc(-c2ccnc(-c3cc(NC(=O)c4ccnc(C(C)(C)F)c4)ccc3C)c2)ccn1 [Example 378]
IC50 [1]: 100 to 500 nM
IC50 [2, 8]: 1000 to 10000 nM
IC50 [3, 9]: ≤ 100 nM
IC50 [4, 10]: ≤ 100 nM

SMILES: CNC(=O)c1cc(-c2cncc(-c3cc(NC(=O)c4ccnc(C(C)(C)F)c4)ccc3C)c2)ncn1 [Example 379]
IC50 [1]: ≤ 100 nM
IC50 [2, 8]: 1000 to 10000 nM
IC50 [3, 9]: ≤ 100 nM
IC50 [4, 10]: ≤ 100 nM

SMILES: Cc1ccc(NC(=O)c2ccnc(C(C)(C)F)c2)cc1-c1cncc(-c2ccnc(C(N)=O)c2)c1 [Example 380]
IC50 [1]: ≤ 100 nM
IC50 [2, 8]: 1000 to 10000 nM
IC50 [3, 9]: ≤ 100 nM
IC50 [4, 10]: ≤ 100 nM

SMILES: COC(=O)Nc1cc(-c2cncc(-c3cc(NC(=O)c4ccnc(C(C)(C)F)c4)c(F)cc3C)c2)ccn1 [Example 384]
IC50 [1]: ≤ 100 nM
IC50 [2, 8]: 1000 to 10000 nM
IC50 [3, 9]: ≤ 100 nM
IC50 [4, 10]: ≤ 100 nM

SMILES: Cc1ncc(NC(=O)c2ccnc(C(C)(C)C#N)c2)cc1-c1cccc(-c2ncnn3cccc23)c1 [Example 385]
IC50 [1]: 1000 to 10000 nM
IC50 [2, 8]: 1000 to 10000 nM
IC50 [3, 9]: 100 to 500 nM
IC50 [4, 10]: ≤ 100 nM

SMILES: COC(=O)Nc1cc(-c2cc(-c3cc(NC(=O)c4ccnc(C(C)(C)F)c4)c(F)cc3C)cc(C)n2)ccn1 [Example 386]
IC50 [1]: 100 to 500 nM
IC50 [2, 8]: 1000 to 10000 nM
IC50 [3, 9]: ≤ 100 nM
IC50 [4, 10]: ≤ 100 nM

SMILES: Cc1ccc(NC(=O)[C@H]2CCO[C@@H](C(C)C)C2)cc1-c1cc(-c2ccnc(NC(=O)C3CC3)c2)cnn1 [Example 388]
IC50 [1]: 500 to 1000 nM
IC50 [2, 8]: 1000 to 10000 nM
IC50 [3, 9]: ≤ 100 nM
IC50 [4, 10]: 100 to 500 nM

SMILES: Cc1ccc(NC(=O)[C@H]2CCO[C@H](C(C)C)C2)cc1-c1cc(-c2ccnc(NC(=O)C3CC3)c2)cnn1 [Example 389]
IC50 [1]: 500 to 1000 nM
IC50 [2, 8]: 1000 to 10000 nM
IC50 [3, 9]: ≤ 100 nM
IC50 [4, 10]: 100 to 500 nM

Further lines, with some results ahead:

IC50 [2, 8]: 1000 to 10000 nM
IC50 [3, 9]: ≤ 100 nM
IC50 [4, 10]: ≤ 100 nM
SMILES: COC(=O)Nc1cc(-c2nccc(-c3cc(NC(=O)c4ccnc(C(C)(C)F)c4)ccc3C)n2)ccn1 [Example 391]
IC50 [1]: ≤ 100 nM

IC50 [2, 8]: 1000 to 10000 nM
IC50 [3, 9]: 100 to 500 nM
IC50 [4, 10]: 1000 to 10000 nM
SMILES: CNC(=O)c1cc(-c2ccnc(-c3cc(NC(=O)CCC4(F)CC4)ccc3C)c2)ccn1 [Example 392]
IC50 [1]: 1000 to 10000 nM

IC50 [2, 8]: 1000 to 10000 nM
IC50 [3, 9]: ≤ 100 nM
IC50 [4, 10]: ≤ 100 nM
SMILES: CNC(=O)c1cc(-c2cncc(-c3cc(NC(=O)c4ccnc(C5(C#N)CC5)c4)ccc3C)c2)ncn1 [Example 393]
IC50 [1]: ≤ 100 nM

IC50 [2, 8]: 100 to 500 nM
IC50 [3, 9]: ≤ 100 nM
IC50 [4, 10]: ≤ 100 nM
SMILES: Cc1ccc(NC(=O)c2ccnc(C(C)(C)F)c2)cc1-c1cncc(-c2cc(NC(=O)C3CC3)ncn2)c1 [Example 394]
IC50 [1]: ≤ 100 nM

IC50 [2, 8]: 500 to 1000 nM
IC50 [3, 9]: ≤ 100 nM
IC50 [4, 10]: ≤ 100 nM
SMILES: Cc1ccc(NC(=O)c2ccnc(C3(C#N)CC3)c2)cc1-c1cncc(-c2cc(NC(=O)C3CC3)ncn2)c1 [Example 395]
IC50 [1]: ≤ 100 nM

IC50 [2, 8]: 100 to 500 nM
IC50 [3, 9]: ≤ 100 nM
IC50 [4, 10]: ≤ 100 nM
SMILES: Cc1ccc(NC(=O)c2ccnc(C3CC3)c2)cc1-c1cncc(-c2cc(NC(=O)C3CC3)ncn2)c1 [Example 396]
IC50 [1]: ≤ 100 nM

IC50 [2, 8]: 1000 to 10000 nM
IC50 [3, 9]: ≤ 100 nM
IC50 [4, 10]: ≤ 100 nM
SMILES: Cc1ccc(NC(=O)c2ccnc(C(F)(F)F)c2)cc1-c1cncc(-c2cc(NC(=O)C3CC3)ncn2)c1 [Example 397]
IC50 [1]: ≤ 100 nM

IC50 [2, 8]: 1000 to 10000 nM
IC50 [3, 9]: ≤ 100 nM
IC50 [4, 10]: ≤ 100 nM
SMILES: Cc1cc(F)c(NC(=O)c2ccnc(C3CC3)c2)cc1-c1cncc(-c2cc(NC(=O)C3CC3)ncn2)c1 [Example 398]
IC50 [1]: ≤ 100 nM

IC50 [2, 8]: 500 to 1000 nM
IC50 [3, 9]: ≤ 100 nM
IC50 [4, 10]: ≤ 100 nM
SMILES: Cc1cc(F)c(NC(=O)c2ccnc(C(C)(C)F)c2)cc1-c1cncc(-c2ccnc(NC(=O)C3CC3)c2)c1 [Example 399]
IC50 [1]: ≤ 100 nM

IC50 [2, 8]: 1000 to 10000 nM
IC50 [3, 9]: ≤ 100 nM
IC50 [4, 10]: 100 to 500 nM
SMILES: Cc1ccc(NC(=O)c2ccnc(C(C)(C)F)c2)cc1-c1cc(-c2ccnc3[nH]ncc23)cnn1 [Example 400]
IC50 [1]: 1000 to 10000 nM

IC50 [2, 8]: 1000 to 10000 nM
IC50 [3, 9]: ≤ 100 nM
IC50 [4, 10]: ≤ 100 nM
SMILES: COC(=O)Nc1cc(-c2cc(-c3cc(NC(=O)c4ccnc(C(C)(C)F)c4)ccc3C)cc(OCCO)n2)ccn1 [Example 401]
IC50 [1]: ≤ 100 nM

IC50 [2, 8]: 1000 to 10000 nM
IC50 [3, 9]: ≤ 100 nM
IC50 [4, 10]: ≤ 100 nM
SMILES: COC(=O)Nc1cc(-c2cccc(-c3cc(NC(=O)c4ccnc(C(C)(C)F)c4)cnc3C)c2)ccn1 [Example 402]
IC50 [1]: 100 to 500 nM

IC50 [2, 8]: 1000 to 10000 nM
IC50 [3, 9]: ≤ 100 nM
IC50 [4, 10]: ≤ 100 nM
SMILES: COC(=O)Nc1cc(-c2ccnc(-c3cc(NC(=O)c4ccnc(C(C)(C)F)c4)ccc3C)n2)ccn1 [Example 403]
IC50 [1]: ≤ 100 nM
